Results from article PMC7394005, “Assessing the Selectivity of FXR, LXRs, CAR, and RORγ Pharmaceutical Ligands With Reporter Cell Lines” (Frontiers in Pharmacology, 2020).

Tests used:
Format in all cases: cell-based
[1] = target: T1, human RORγ (Homo sapiens, UniProt P51449); experiment: HG5LN GAL4-RORγ reporter cell line, agonist mode in presence of SR2211; settings: read-out: RORγ (SR2211 1 mM) EC50; in presence of SR2211 1 mM; NE = No effect
T1 construct: RORγ (S97-K518); expressed in transfected cells; host or cells: HG5LN (HeLa cells carrying the (GAL4RE)5-βGlob-Luc-SVNeo reporter)
T1 sequence (P51449 97-518): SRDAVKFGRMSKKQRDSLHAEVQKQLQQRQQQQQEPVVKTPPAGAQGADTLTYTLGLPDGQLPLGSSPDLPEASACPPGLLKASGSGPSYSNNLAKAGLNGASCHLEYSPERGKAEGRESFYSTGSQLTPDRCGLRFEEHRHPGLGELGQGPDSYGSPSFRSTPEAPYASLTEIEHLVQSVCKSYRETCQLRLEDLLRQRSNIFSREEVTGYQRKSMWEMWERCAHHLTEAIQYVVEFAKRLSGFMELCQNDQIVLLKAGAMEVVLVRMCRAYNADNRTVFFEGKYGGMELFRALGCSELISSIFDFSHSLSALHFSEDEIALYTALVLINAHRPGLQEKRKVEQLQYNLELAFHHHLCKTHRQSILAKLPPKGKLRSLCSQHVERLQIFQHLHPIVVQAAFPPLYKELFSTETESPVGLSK
From the text: (§1) To construct GAL4-NR chimeras, individual LBDs of human FXR (R193-Q486), LXRα (A187-E447), LXRβ (G199-E461), CAR (M76-S348), and RORγ (S97-K518) were amplified by PCR with primers containing XhoI and SacI restriction sites (FXR), XhoI and BamHI (LXRs, CAR, RORγ) and inserted in pSG5-GAL4(DBD)-puromycin plasmid. To construct GAL4-CAR (+ APYLT) (M76-S353), the five amino acids APYLT were inserted by overlap extension PCR between amino acids P270 and D271 of CAR.
(§2) To characterize the specificity of chemicals for human FXR, LXRα, LXRβ, CAR and RORγ, we established in a similar manner HG5LN FXR, LXRα, LXRβ, CAR WT, CAR (APYLT) and RORγ reporter cell lines. […] These cells were stably transfected by pSG5-GAL4 (DBD)-NRs (LBD)-puromycin plasmid and selected in presence of 0.5 µg/ml puromycin. […] From each HG5LN NR cells, 5 to 10 clones were chosen for their ligand inducibility of luciferase expression. […] The most inducible clones were expanded and rechecked for inducibility and aliquots were frozen at different passages. One clone per receptor was maintained in culture and used for ligand screening. HG5LN cells were cultured in Dulbecco’s modified Eagle’s medium (DMEM): Nutrient Mixture F-12 (DMEM/F-12) containing phenol red and 1 g/l glucose and supplemented with 5% fetal bovine serum, 100 units/ml of penicillin, 100 µg/ml of streptomycin and 1 mg/ml geneticin, in 5% CO2 humidified atmosphere at 37°C. Stably transfected cell lines derived from HG5LN cells were cultured in the same culture medium supplemented with 0.5 µg/ml puromycin.
(§3) Individual reporter cell lines were seeded at a density of 40,000 cells per well in 96-well white opaque tissue culture plates (Greiner CellStar) in Dulbecco’s Modified Eagle Medium: Nutrient Mixture F-12 (DMEM/F-12) without phenol red and 1 g/l glucose and supplemented with 5% stripped fetal bovine serum, 100 units/ml of penicillin, 100 µg/ml of streptomycin (test medium). Chemicals to be tested were added 24h later, and cells were incubated at 37°C for 16h. Experiments were performed in quadruplicates. At the end of the incubation period, culture medium was replaced with test medium containing 0.3 mM luciferin solution. Luciferase activity was measured for 2s in intact living cells after 10 min stabilization using a Micro Beta Wallac luminometer (PerkinElmer). EC50 values were calculated using GraphPad Prism (GraphPad Software Inc).
(§4) Chemicals tested for agonism on FXR, LXRs, CAR (+ APYLT), PXR, and antagonism on CAR and RORγ were tested alone, without addition of any other ligand.
(§5) In the transactivation assay, each compound was tested at various concentrations in three independent experiments at least. For each experiment, tests were performed in quadruplicates for each concentration, and data are expressed by means values with standard deviations. Individual agonist dose–response curves, in the absence and presence of antagonist, were fitted using the sigmoid dose-response function of a graphics and statistics software program (GraphPad Prism, version 5.0). EC50 (effective concentration for half-maximal luciferase activity) and IC50 (half-maximal inhibitory concentration) values were calculated from equations used to fit the data in this graphic software. Transactivation data are presented as EC50 and IC50 values for each compound tested. To analyze significances, we compared individual compound treatments with controls using one-way analysis of variance (ANOVA) with the help of GraphPad Prism software.

[2] = target: T1, human RORγ; experiment: HG5LN GAL4-RORγ reporter cell line, inhibition of constitutive activity; settings: inhibition of constitutive activity, tested alone; NE = No effect
From the text: as §1, §2, §3, §4, §5

[3] = target: T2, human LXRα (Homo sapiens, UniProt Q13133); experiment: HG5LN GAL4-LXRα reporter cell line, agonist mode; settings: HG5LN GAL4-LXRα cells, tested alone; NE = No effect; read-out: LXRα EC50
T2 construct: LXRα (A187-E447); expressed in transfected cells; host or cells: HG5LN (HeLa cells carrying the (GAL4RE)5-βGlob-Luc-SVNeo reporter)
T2 sequence (Q13133 187-447): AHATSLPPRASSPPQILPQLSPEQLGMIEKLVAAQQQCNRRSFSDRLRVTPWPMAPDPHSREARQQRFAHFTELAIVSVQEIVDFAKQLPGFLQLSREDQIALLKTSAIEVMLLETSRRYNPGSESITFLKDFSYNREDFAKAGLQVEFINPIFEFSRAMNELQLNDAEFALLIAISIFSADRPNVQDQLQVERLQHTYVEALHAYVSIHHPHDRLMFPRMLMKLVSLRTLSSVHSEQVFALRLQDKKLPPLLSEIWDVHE
From the text: as §1, §2, §3, §4, §5

[4] = target: T2, human LXRα; experiment: HG5LN GAL4-LXRα reporter cell line, antagonist mode in presence of T0901317; settings: read-out: LXRα (T0901317 20 nM) IC50; in presence of T0901317 20 nM; NE = No effect
From the text: as §1, §2, §3, §4, §5

[5] = target: T3, human LXRβ (Homo sapiens, UniProt P55055); experiment: HG5LN GAL4-LXRβ reporter cell line, antagonist mode in presence of T0901317; settings: read-out: LXRβ (T0901317 100 nM) IC50; in presence of T0901317 100 nM; NE = No effect
T3 construct: LXRβ (G199-E461); expressed in transfected cells; host or cells: HG5LN (HeLa cells carrying the (GAL4RE)5-βGlob-Luc-SVNeo reporter)
T3 sequence (P55055 198-460 limits assumed): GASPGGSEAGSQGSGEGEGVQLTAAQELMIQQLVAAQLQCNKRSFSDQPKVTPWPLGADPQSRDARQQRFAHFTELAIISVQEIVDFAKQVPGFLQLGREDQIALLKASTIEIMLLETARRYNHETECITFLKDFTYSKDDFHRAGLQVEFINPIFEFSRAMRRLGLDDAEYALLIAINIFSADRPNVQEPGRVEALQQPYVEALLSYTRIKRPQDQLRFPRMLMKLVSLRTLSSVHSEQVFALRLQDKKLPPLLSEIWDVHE
From the text: as §1, §2, §3, §4, §5

[6] = target: T3, human LXRβ; experiment: HG5LN GAL4-LXRβ reporter cell line, agonist mode; settings: HG5LN GAL4-LXRβ cells, tested alone; NE = No effect; read-out: LXRβ EC50
From the text: as §1, §2, §3, §4, §5

[7] = target: T4, human PXR (Homo sapiens, UniProt O75469); experiment: HG5LN PXR reporter cell line, agonist mode; settings: NE = No effect
T4 construct: The GAL4-NR chimeric cell lines provide uniform cellular model differing just in receptor LBDs; expressed in transfected cells; host or cells: HG5LN PXR (HeLa-derived; described in Delfosse et al., 2015)
T4 sequence (O75469 146-433 limits assumed): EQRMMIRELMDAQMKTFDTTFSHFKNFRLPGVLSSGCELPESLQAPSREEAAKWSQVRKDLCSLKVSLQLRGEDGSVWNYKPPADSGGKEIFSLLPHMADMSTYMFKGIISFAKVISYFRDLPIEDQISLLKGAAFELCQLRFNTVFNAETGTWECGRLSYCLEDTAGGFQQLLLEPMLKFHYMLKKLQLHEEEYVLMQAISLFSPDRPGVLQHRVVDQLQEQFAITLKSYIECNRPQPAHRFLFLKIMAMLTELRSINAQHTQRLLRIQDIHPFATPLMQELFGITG
Experimental: as §2, §3, §4, §5

CCC(C)N(C)C(=O)c1cc2ccccc2c(-c2ccccc2Cl)n1 (centres unmarked) [PK11195]
EC50 [1]: > 10 µM | IC50 [2]: > 10 µM | EC50 [3]: > 10 µM | IC50 [4]: > 10 µM | IC50 [5]: > 10 µM | EC50 [6]: > 10 µM | EC50 ([7]; HG5LN PXR cells, tested alone, read-out: PXR EC50): 0.726 ± 0.056 µM | PXR % max act ([7]; maximal luciferase activity at 10^-5 M (10^-6 M *, 3 10^-6 M **), 100% = 3 µM SR12813, DMSO 19 ± 2): 80%
